≈ marks a conversion by molar mass, not a printed value.
How the values were obtained:
[1] = system: Tagia sp.
[2] = system: Rattus norvegicus
[3] = system: Apis mellifera; conditions: acute; duration: 48 hours; dermal; mortality
[4] = system: Daphnia magna; conditions: chronic/long-term; duration: 21 days; reproduction
[5] = system: Lepomis macrochirus; conditions: acute; duration: 96 hours; mortality
[6] = system: Anas platyrhynchos
[7] = system: Oryctolagus sp.; conditions: reproduction developmental; body weight
[8] = system: Colinus virginianus
[9] = system: Pimephales promelas; conditions: chronic/long-term; duration: 265 days; growth
[10] = system: Aphidius rhopalosiphi; assay: LR50; higher = less toxic; conditions: not reported; mortality
[11] = system: Bibionidae; conditions: chronic/long-term; duration: 28 days

Q: With COC(=O)C(C)Oc1ccc(Oc2ccc(Cl)cc2Cl)cc1 (racemic) [(+-)-Diclofop-methyl] as the compound, how does the LC50 ([1]; acute, duration: 14 days, mortality) read?
A: > 1000 mg/kg

Q: What about the LD50 ([2]; acute, oral, mortality) of the same compound?
A: 512 mg/kg-day

Q: What about the NOEL ([2]; chronic) of the same compound?
A: 7.8 mg/kg-day

Q: What about the LOAEL ([2]; chronic, duration: 2 years, histopathology: nonneoplastic) of the same compound?
A: 0.2 mg/kg-day

Q: What about the NOAEL ([2]; reproduction developmental, no effects) of the same compound?
A: 3 mg/kg-day

Q: And the LD50 [3]?
A: > 100 µg/piece

Q: And the NOEC [4]?
A: 0.081 mg/L

Q: And the LC50 [5]?
A: 0.15 µg/mL (≈ 0.44 µM)

Q: What about the NOEC ([6]; reproductive) of the same compound?
A: 25 mg/kg-day

Q: What about the LC50 ([6]; short-term, oral, feed, mortality) of the same compound?
A: > 1100 mg/kg-day

Q: And the NOAEL [7]?
A: 0.3 mg/kg-day

Q: And the LC50 ([8]; acute, oral, diet, mortality)?
A: > 2880 mg/kg-day

Q: And the LD50 ([8]; acute, oral, mortality)?
A: > 2250 mg/kg-day

Q: What about the NOEC ([8]; reproduction developmental) of the same compound?
A: 20 mg/kg-day

Q: What about the NOEC [9] of the same compound?
A: 0.015 mg/L

Q: And the LR50 [10]?
A: 30.1 g/ha

Q: What does the source list for CC(Oc1ccc(Oc2ccc(Cl)cc2Cl)cc1)C(=O)O (stereo not drawn) [Diclofop]?
A: NOEC ([1]; chronic/long-term, duration: 56 days): 100 mg/kg; NOEC [11]: 10 mg/L

Reference: EPA's ToxValDB 9.5 (doi:10.2903/j.efsa.2010.1718)
